The record followed here is patent US20150273025A1, “APYRASE TREATMENTS” (THE REGENTS OF THE UNIVERSITY OF MICHIGAN, priority 2012, published 2015).

Where a SMILES comes first, the peptide text is derived from it. Bridges are numbered along the chain shown (N, C = ends). [ ]: non-standard residue; d: D form. The star is where a group is joined. Heptanoyl(5-Me) = CCC(C)CCCC(=O)*; Dab = NCC[C@H](N)C(=O)O

Assay [1] concerns Burkholderia cepacia GIIIa AU0019. Put plainly: Viable cell count (CFU) with colistin and apyrase. The assay is classed as cell-based. The conditions noted are these: apyrase 2 U/ml; colistin at less than 10 μg/ml.
In assay [2] the test system is A. baumannii AC121. Kind of assay: MIC from dose-kill curves, colistin alone or with apyrase. To be noted: 4 hours at 37° C., apyrase 2 U/ml in the combination. It counts as cell-based. As for the experimental part: (§1) Data were collected from systematic tests to investigate bacterial killing with colistin and apyrase combinations against ESKAPE bacteria in vitro. […] Dose-kill curves for 22 strains (colistin sensitive or resistant ˜10^6 CFU/ml) were generated after exposure to colistin at different concentrations by itself or in combination with apyrase (2 U/ml) for 4 hours at 37° C. Data were obtained from three independent experiments. […] The MIC of colistin and apyrase combinations was generally 2- to 8-fold lower in comparison to the MIC for colistin alone (FIG. 31 and Table 2). For Gram-positive strains, the MICs results obtained with colistin alone and with the combination of colistin and apyrase were very similar.

In assay [3] the test system is A. baumannii AC285. The assay is described as above. To be noted: 4 hours at 37° C., apyrase 2 U/ml in the combination. The assay is classed as cell-based. As for the experimental part: as §1
For assay [4], the system named is A. baumannii ATCC 19606. The description is as above. The assay is classed as cell-based. The conditions noted are these: 4 hours at 37° C., apyrase 2 U/ml in the combination. As for the experimental part:
as §1

In assay [5] the test system is A. baumannii DMC1. The assay is described as above. The assay is classed as cell-based. The conditions noted are these: 4 hours at 37° C., apyrase 2 U/ml in the combination. As for the experimental part:
as §1

Assay [6] deals with A. baumannii VBA9. Described as above. It counts as cell-based. To be noted: 4 hours at 37° C., apyrase 2 U/ml in the combination. As for the experimental part: as §1
Assay [7] relates to B. multivorans AU0801. The assay is described as above. It counts as cell-based. To be noted: 4 hours at 37° C., apyrase 2 U/ml in the combination. As for the experimental part:
as §1

Assay [8] deals with E. coli K-12. The assay is described as above. The assay is classed as cell-based. To be noted: 4 hours at 37° C., apyrase 2 U/ml in the combination. As for the experimental part:
as §1

The test system of assay [9] is K. pneumonia AD. The assay is described as above. The assay is classed as cell-based. To be noted: 4 hours at 37° C., apyrase 2 U/ml in the combination. As for the experimental part:
as §1

Assay [10] relates to P. aeruginosa ATCC 27853. The assay is described as above. The assay is classed as cell-based. To be noted: 4 hours at 37° C., apyrase 2 U/ml in the combination. The method, then: as §1
For assay [11], the system named is P. aeruginosa AU1292. Described as above. The assay is classed as cell-based. The conditions noted are these: 4 hours at 37° C., apyrase 2 U/ml in the combination. The method, then:
as §1

The subject of assay [12] is P. aeruginosa AU7443. Described as above. It counts as cell-based. The conditions noted are these: 4 hours at 37° C., apyrase 2 U/ml in the combination. As for the experimental part: as §1
Assay [13] deals with P. aeruginosa PAO300. The assay is described as above. The assay is classed as cell-based. To be noted: 4 hours at 37° C., apyrase 2 U/ml in the combination. The method, then: as §1
The test system of assay [14] is S. aureus ATCC 25923. The assay is described as above. The assay is classed as cell-based. The conditions noted are these: 4 hours at 37° C., apyrase 2 U/ml in the combination. The method, then: as §1
In assay [15] the test system is A. baumannii strain ATCC 19606. Put plainly: Viable cell count (CFU) with colistin and apyrase. The conditions noted are these: apyrase 1 and 2 U/ml; colistin 0.25 to 2 μg/ml; colistin alone at the same concentrations.
Experimental: Approximately 10^6 CFU/ml of A. baumannii strain ATCC 19606 was grown on solid medium culture plates in the presence of combinations of 0, 1, and 2 U/ml of apyrase and 0, 0.25, 0.5, 1, and 2 μg/ml of colistin. After incubation, the numbers of viable cells were determined by counting the colony forming units (CFU) on the plate (data provided as CFU/ml). […] In these Examples, the colistin is colistin sulfate salt, catalog number C4461 from Sigma-Aldrich (St. Louis, Mo.) and the apyrase is catalog number M0393L from New England BioLabs Inc. (Ipswich, Mass.).
Assay [16] deals with A. baumannii strain DMC1. Kind of assay: Viable cell count (CFU) with colistin and apyrase. The conditions noted are these: apyrase 1 and 2 U/ml; colistin 4 to 32 μg/ml; colistin alone at the same concentrations.
Experimental: Approximately 10^6 CFU/ml of A. baumannii strain DMC1 was grown on solid medium culture plates in the presence of combinations of 0, 1, and 2 U/ml of apyrase and 0, 4, 8, 16, and 32 μg/ml of colistin. After incubation, the numbers of viable cells were determined by counting the colony forming units (CFU) on the plate (data provided as CFU/ml).
Assay [17] has as its system A. baumannii strain AC121. Put plainly: Viable cell count (CFU) with colistin and apyrase. To be noted: apyrase 2 U/ml; colistin at less than 20 μg/ml; colistin-resistant strain.
Experimental: Approximately 10^5 to 10^6 CFU/ml of the colistin-resistant A. baumannii strain AC121 was grown in the presence of combinations of 0 and 2 U/ml of apyrase and approximately 0 to 20 μg/ml of colistin. After incubation, the numbers of viable cells were determined by counting the colony forming units (CFU) on the plate (data provided as CFU/ml).
For assay [18], the system named is P. aeruginosa strain AU1292. Kind of assay: Viable cell count (CFU) with colistin and apyrase. To be noted: apyrase 2 U/ml; colistin at less than 20 μg/ml.
Experimental: P. aeruginosa strain AU1292 was grown in the presence of combinations of 0 and 2 U/ml of apyrase and approximately 0 to 20 μg/ml of colistin. After incubation, the numbers of viable cells were determined by counting the colony forming units (CFU) on the plate (data provided as CFU/ml).
Assay [19] has as its system P. aeruginosa strain AU7443, mucoid. Put plainly: Viable cell count (CFU) with colistin and apyrase. To be noted: apyrase 2 U/ml; colistin at less than 20 μg/ml.
Experimental: After incubation, the numbers of viable cells were determined by counting the colony forming units (CFU) on the plate (data provided as CFU/ml).
Assay [20] deals with Burkholderia vietnamiensis AU10214. Put plainly: Viable cell count (CFU) with colistin and apyrase. The conditions noted are these: apyrase 2 U/ml; colistin at less than 20 μg/ml.
Experimental: Burkholderia vietnamiensis AU10214 was grown in the presence of combinations of 0 and 2 U/ml of apyrase and approximately 0 to 20 μg/ml of colistin. After incubation, the numbers of viable cells were determined by counting the colony forming units (CFU) on the plate (data provided as CFU/ml).
The test system of assay [21] is Burkholderia cepacia AU1114. Put plainly: Viable cell count (CFU) with colistin and apyrase. To be noted: apyrase 2 U/ml; colistin at less than 20 μg/ml.
Experimental: Burkholderia cepacia AU1114 was grown in the presence of combinations of 0 and 2 U/ml of apyrase and approximately 0 to 20 μg/ml of colistin. After incubation, the numbers of viable cells were determined by counting the colony forming units (CFU) on the plate (data provided as CFU/ml).
For assay [22], the system named is P. aeruginosa strain AU8104. Put plainly: Viable cell count (CFU) with colistin and apyrase. The conditions noted are these: apyrase 2 U/ml; colistin at less than 10 μg/ml.
Experimental: P. aeruginosa strain AU8104 was grown in the presence of combinations of 0 and 2 U/ml of apyrase and approximately 0 to 20 μg/ml of colistin. After incubation, the numbers of viable cells were determined by counting the colony forming units (CFU) on the plate (data provided as CFU/ml).
The subject of assay [23] is Burkholderia cepacia GIIIb AU0062. Put plainly: Viable cell count (CFU) with colistin and apyrase. The conditions noted are these: apyrase 2 U/ml; colistin at less than 20 μg/ml.
Experimental: Burkholderia cepacia GIIIb AU0062 was grown in the presence of combinations of 0 and 2 U/ml of apyrase and approximately 0 to 20 μg/ml of colistin. After incubation, the numbers of viable cells were determined by counting the colony forming units (CFU) on the plate (data provided as CFU/ml).
Assay [24] concerns Burkholderia ambifaria AU5203. Kind of assay: Viable cell count (CFU) with colistin and apyrase. To be noted: apyrase 2 U/ml; colistin at less than 20 μg/ml.
Experimental: Burkholderia ambifaria AU5203 was grown in the presence of combinations of 0 and 2 U/ml of apyrase and approximately 0 to 20 μg/ml of colistin. After incubation, the numbers of viable cells were determined by counting the colony forming units (CFU) on the plate (data provided as CFU/ml).
Assay [25] deals with Burkholderia cepacia GIIIb AU0055. Kind of assay: Viable cell count (CFU) with colistin and apyrase. To be noted: apyrase 2 U/ml; colistin at less than 10 μg/ml.
Experimental: Burkholderia cepacia GIIIb AU0055 was grown in the presence of combinations of 0 and 2 U/ml of apyrase and approximately 0 to 20 μg/ml of colistin. After incubation, the numbers of viable cells were determined by counting the colony forming units (CFU) on the plate (data provided as CFU/ml).
Assay [26] has as its system P. aeruginosa AU0584. Put plainly: Viable cell count (CFU) with colistin and apyrase. To be noted: apyrase 2 U/ml; colistin at less than 10 μg/ml.
Experimental: P. aeruginosa AU0584 was grown in the presence of combinations of 0 and 2 U/ml of apyrase and approximately 0 to 20 μg/ml of colistin. After incubation, the numbers of viable cells were determined by counting the colony forming units (CFU) on the plate (data provided as CFU/ml).
The subject of assay [27] is Burkholderia dolosa AU0589. Put plainly: Viable cell count (CFU) with colistin and apyrase. To be noted: apyrase 2 U/ml; colistin at less than 20 μg/ml.
Experimental: Burkholderia dolosa AU0589 was grown in the presence of combinations of 0 and 2 U/ml of apyrase and approximately 0 to 20 μg/ml of colistin. After incubation, the numbers of viable cells were determined by counting the colony forming units (CFU) on the plate (data provided as CFU/ml).
For assay [28], the system named is Burkholderia multivorans AU0801. Kind of assay: Viable cell count (CFU) with colistin and apyrase. The conditions noted are these: apyrase 2 U/ml; colistin at less than 10 μg/ml.
Experimental: Burkholderia multivorans AU0801 was grown in the presence of combinations of 0 and 2 U/ml of apyrase and approximately 0 to 20 μg/ml of colistin. After incubation, the numbers of viable cells were determined by counting the colony forming units (CFU) on the plate (data provided as CFU/ml).
Assay [29] concerns A. baumannii DMC1. Kind of assay: Mouse wound model, viable bacteria at burn sites 24 hours after burn. To be noted: C57BL/6 mice, colistin 4 μg/ml.
Experimental: In addition, experiments were performed to test the synergistic killing effects of colistin and apyrase in vivo. An established mouse wound model was used for this test.
Female pathogen-free C57BL/6 mice (Harlan, Indianapolis, Ind.), 12 weeks old, weighing ˜20-23 grams were used in all experiments. The skin over the lumbrosacral and back region was clipped using a 35-W model 5-55 E electrical clipper (Oyster-Golden A-S, Head no. 80, blade size 40) by using the method described by Ipaktchi et al. with slight modification. Two hundred microliters of a 0.9% saline suspension of A. baumannii DMC1 (1×10^6 cells/ml), which is a highly colistin resistant clinical strain, was used for wound infection experiments. Viable bacterial numbers were determined 24 hours after burn. The Student t-test was used for statistical analysis.
Experiments were carried out in four groups: (1) a control group (n=6), which contained neither apyrase nor colistin; (2) apyrase group (n=9), which contained apyrase (1 U/ml); (3) colistin group (n=9), which contained colistin (4 μg/ml); and (4) apyrase and colistin group (n=9), which was treated with the combination of apyrase (1 U/ml) and colistin (4 μg/ml). The treatment was applied immediately after inoculation. After 24 hours, the mice were given lethal IP injections of pentobarbital (150 mg/kg) and skin samples were collected using a scalpel and scissors.
Assay [30] deals with A. baumannii ATCC DMC1. Kind of assay: Mouse burn wound infection model, treatment 24 hours after inoculation. To be noted: treated 24 hours after inoculation, sampled 48 hours after the burn.
Experimental: After a burn, A. baumannii ATCC DMC1 was inoculated on skin. After 24 hours, the wounds were treated with apyrase alone, colistin alone, or apyrase and colistin in combination. Skin samples were collected after another 24 hours and the CFU/g skin of A. baumannii ATCC DMC1 was determined.
For assay [31], the system named is bacterial culture. Kind of assay: Growth of a bacterial culture (optical density at 600 nm) with apyrase. The assay is classed as cell-based. The conditions noted are these: presence vs absence of apyrase over 15 to 20 hours.
Assay [32] concerns MSCs. Kind of assay: Osteogenic differentiation of MSCs after burn injury (alizarin red), burn mouse model. The assay is classed as in vivo. The text has this:
(§2) At the cellular level, research has shown that aberrant expression of BMPs in adipose-derived MSCs near the wound site stimulates osteogenic differentiation of multipotent cells. […] Alizarin red is used in to determine, quantitatively by colorimetry, the presence of calcific deposition by cells of an osteogenic lineage. As such, it is a marker of matrix mineralization, a crucial step towards the formation of calcified extracellular matrix associated with true bone. Thus, alizarin red staining indicates differentiation of cells to bone lineages.
(§3) Consequently, it is contemplated that decreasing inflammation at the burn site with apyrase—thus decreasing ATP concentrations, which leads to decreased MSC BMP-2 signaling and decreased osteogenic differentiation—alleviates heterotopic ossification at wound sites.

Assay [33] deals with BMP-2 signaling. Kind of assay: BMP-2 signaling of MSCs after burn injury, burn mouse model. It counts as in vivo. The conditions noted are these: apyrase at the burn site.
Excerpt: as §2, §3

A short description of assay [34]: Killing efficiency of antibacterial agents with apyrase (summary of the examples). To be noted: in some instances. The assay is classed as cell-based. The method, then: Embodiments of the technology relate to the surprising discovery that apyrase and antimicrobial agents act together synergistically. […] As such, the technology provides therapies in which antimicrobial agents are administered in lower doses (e.g., 0.01%, 0.1%, 1%, 5%, 10%, 20%, 50%, 75%, 90%, etc. of the standard recommended dosage) than in conventional technologies. Importantly, this reduces toxic side effects, if present, of antimicrobial agents in subjects and helps to prevent drug resistance of microbes. In addition, the technology provided herein comprising combined use of apyrase and antimicrobial agents provides the only treatment to kill some multiply-resistant strains of pathogens.

As to `CCC(C)CCCC(=O)N[C@@H](CCN)C(=O)N[C@H](C(=O)N[C@@H](CCN)C(=O)N[C@H]1CCNC(=O)[C@H]([C@@H](C)O)NC(=O)[C@H](CCN)NC(=O)[C@H](CCN)NC(=O)[C@H](CC(C)C)NC(=O)[C@@H](CC(C)C)NC(=O)[C@H](CCN)NC1=O)[C@@H](C)O` (stereo partly drawn) [Colistin, colistin] ({Heptanoyl(5-Me)}-[Dab]T[Dab][Dab][Dab][dL]L[Dab][Dab]T; lactam 4-C), the viable cells detected in [1] is listed as 10^5 to 10^6 CFU/ml; in [17] it was 10^7 to 10^8 CFU/ml; in assay [18], 10^4 to 10^5 CFU/ml; in assay [19] it was 10^4 to 10^5 CFU/ml; in assay [20], 10^5 to 10^6 CFU/ml; in [21] it was 10^5 to 10^6 CFU/ml. Moreover, the viable cells detected in [22] is reported as 10^5 to 10^6 CFU/ml; in [23], 10^4 to 10^5 CFU/ml; in assay [24], 10^5 to 10^6 CFU/ml; in [25], 10^4 to 10^5 CFU/ml; in assay [26], 10^3 to 10^4 CFU/ml; in [27], 10^6 to 10^7 CFU/ml. Besides, the viable cells detected in assay [28] was 10^5 to 10^6 CFU/ml. The MIC was > 32 µM in assay [2]; > 32 µM in [3]; 4 µM in assay [4]; > 32 µM in assay [5]; > 32 µM in assay [6]; > 16 µM in [7]. In addition, the MIC in assay [8] was 2 µM; in assay [9] it was 16 µM; in assay [10], 1 µM; in assay [11] it was > 16 µM; in assay [12], > 16 µM; in assay [13] it was 2 µM. Besides, in assay [14], the MIC is > 32 µM. In addition, the results for the viable cell count result in assay [15] and in assay [16] were “approximately 10^5 CFU/ml” and “approximately 10^7 CFU/ml”, respectively. Also, in assay [29], the “viable bacteria number recovered from burn sites, compared with the control group” value is “no significant difference”. Moreover, the “A. baumannii detected on skin” value in assay [30] is listed as “approximately 10^8 CFU/g of skin”.
apyrase: the “growth of a bacterial culture (optical density at 600 nm)” value in [31] is reported as “does not affect bacterial growth”. In [32] (after burn injury and apyrase treatment), the “osteogenic differentiation of MSCs (alizarin red)” value is listed as “significant decrease”. Moreover, in assay [32] (apyrase at the burn site), the “osteogenic capacity of the MSCs” value is “decreased”. Also, the “level of BMP-2 signaling of the MSCs” value in assay [33] was “decreased”. Besides, in [34], the “increase of the killing efficiency of antibacterial agents” value amounted to 1000 times. The “A. baumannii detected on skin” value in assay [30] is reported as “approximately 10^8 CFU/g of skin”.
